Measured values as given in patent publication US20240199613A1 (TAKEDA PHARMACEUTICAL COMPANY LIMITED, priority 2021, published 2024).

target: human activated kallikrein enzyme (Homo sapiens, UniProt P03952); test: Inhibition of activated plasma kallikrein, fluorogenic peptide substrate (PFR-AMC) assay, 500 pM enzyme format; type: biochemical; conditions: 500 pM activated kallikrein, 300 uM PFR-AMC, 30 min preincubation, 10 min reaction, room temperature; read-out: Primary Dose Response Assay: Average EC50
Sequence (P03952 391-638 limits assumed): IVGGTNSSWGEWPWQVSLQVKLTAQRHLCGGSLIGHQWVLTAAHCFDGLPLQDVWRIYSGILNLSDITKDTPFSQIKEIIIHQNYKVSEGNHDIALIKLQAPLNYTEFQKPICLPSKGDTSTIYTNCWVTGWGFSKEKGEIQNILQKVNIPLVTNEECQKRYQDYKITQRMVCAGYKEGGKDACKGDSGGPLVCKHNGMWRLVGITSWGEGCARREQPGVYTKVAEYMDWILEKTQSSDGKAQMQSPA
Sequence (P03952 20-390 partner limits assumed): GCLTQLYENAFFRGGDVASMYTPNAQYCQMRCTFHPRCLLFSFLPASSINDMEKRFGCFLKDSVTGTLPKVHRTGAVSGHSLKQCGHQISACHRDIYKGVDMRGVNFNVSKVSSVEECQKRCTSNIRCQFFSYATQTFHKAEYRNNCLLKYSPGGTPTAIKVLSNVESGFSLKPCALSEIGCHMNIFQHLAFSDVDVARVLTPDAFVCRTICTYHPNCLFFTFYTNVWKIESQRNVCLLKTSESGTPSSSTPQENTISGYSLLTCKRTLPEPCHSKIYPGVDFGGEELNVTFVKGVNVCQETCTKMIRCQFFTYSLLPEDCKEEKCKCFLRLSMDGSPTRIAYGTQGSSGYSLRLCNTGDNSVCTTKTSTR
Experimental: Compounds were evaluated for inhibition of the human activated kallikrein enzyme in two formats of an assay employing a fluorogenic peptide substrate. In one assay format, the concentrations of reagents were as follows: 20 mM Tris pH 7.5, 1 mM EDTA, 150 mM sodium chloride, 0.1% PEG-400, 0.1% Triton X-100, 500 pM activated kallikrein enzyme, 300 uM Pro-Phe-Arg-7-amido-4-methylcoumarin (PFR-AMC) substrate. Prior to reaction initiation with substrate, enzyme and inhibitors were preincubated for 30 min at room temperature. After initiation with substrate, reactions were incubated for 10 min at room temperature and fluorescence emission at 460 nm from 380 nm excitation measured with a microplate reader. In another assay format, the concentrations of reagents were as follows: 20 mM Tris pH 7.5, 1 mM EDTA, 150 mM sodium chloride, 0.1% PEG-400, 0.1% Triton X-100, 5 pM activated kallikrein enzyme, 300 uM PFR-AMC substrate. Prior to reaction initiation with substrate, enzyme and inhibitors were preincubated for 30 min at room temperature. After initiation with substrate, reactions were incubated for 18 hr at room temperature and fluorescence emission at 460 nm from 380 nm excitation measured with a microplate reader.
Table 6 provides the results of the assay in the format with 500 pM activated kallikrein assay.

Compared with `Cc1ccnc([C@H]2C[C@@H]2C2=NS(=O)(=O)c3ccc(NCc4cn5cc(C6CC6)ccc5n4)cc3N2C)n1` [Example 94, 6-(((6-cyclopropylimidazo[1,2-a]pyridin-2-yl)methyl)amino)-4-methyl-3-((1S,2S)-2-(4-methylpyrimidin-2-yl)cyclopropyl)-4H-benzo[e][1,2,4]thiadiazine 1,1-dioxide], `Cc1ccnc([C@@H]2C[C@H]2C2=NS(=O)(=O)c3ccc(NCc4cn5cc(C6CC6)ccc5n4)cc3N2)n1` (single isomer, unassigned) [Example 66] is lower in EC50: 0.1 to 6.5 µM for the first, 0.01 to 0.1 µM for the second.

`Cc1ccnc([C@H]2C[C@@H]2c2nc3cc(NCc4cn5cc(C6CC6)ccc5n4)ccc3c(=O)[nH]2)n1` (relative stereo) [Example 3] and `Cc1ccnc([C@H]2C[C@@H]2c2ccc3ccc(NCc4cn5cc(C6CC6)ccc5n4)cc3n2)n1` (racemic) [Example 19, rac-N-((6-cyclopropylimidazo[1,2-a]pyridin-2-yl)methyl)-2-((1S*,2S*)-2-(4-methylpyrimidin-2-yl)cyclopropyl)quinolin-7-amine] fall in the same range of EC50: 0.001 to 0.01 µM for the first, 0.001 to 0.01 µM for the second.

`Cc1ccnc([C@H]2C[C@@H]2c2cc(C#N)c3ccc(NCc4cn5cc(C6CC6)cc(N6CC(=O)N(C)C6=O)c5n4)cc3n2)n1` (racemic) [Example 73, rac-7-(((6-cyclopropyl-8-(3-methyl-2,4-dioxoimidazolidin-1-yl)imidazo[1,2-a]pyridin-2-yl)methyl)amino)-2-((1S*,2S*)-2-(4-methylpyrimidin-2-yl)cyclopropyl)quinoline-4-carbonitrile] and `Cc1ccnc([C@@H]2C[C@H]2c2ccc3ccc(NCc4cn5cc(C6CC6)cc(N6CC(=O)N(C)C6=O)c5n4)cc3n2)n1` (single isomer, unassigned) [Example 58] fall in the same range of EC50: 0.01 to 0.1 µM for the first, 0.01 to 0.1 µM for the second.

Compared with `Cc1ccnc([C@H]2C[C@@H]2c2ccc3cccc(NCc4cn5cc(C6CC6)cc(N6CC(=O)N(C)C6=O)c5n4)c3n2)n1` (racemic) [Example 70, rac-1-(6-cyclopropyl-2-(((2-((1S*,2S*)-2-(4-methylpyrimidin-2-yl)cyclopropyl)quinolin-8-yl)amino)methyl)imidazo[1,2-a]pyridin-8-yl)-3-methylimidazolidine-2,4-dione], `Cc1ccnc([C@H]2C[C@@H]2c2cnc3ccc(NCc4cn5cc(C6CC6)cc(N6CC(=O)N(C)C6=O)c5n4)cc3c2)n1` (racemic) [Example 24, rac-1-(6-cyclopropyl-2-(((3-((1S*,2S*)-2-(4-methylpyrimidin-2-yl)cyclopropyl)quinolin-6-yl)amino)methyl)imidazo[1,2-a]pyridin-8-yl)-3-methylimidazolidine-2,4-dione] is lower in EC50: greater than 6.5 µM for the first, 0.1 to 6.5 µM for the second.

`COc1cc([C@H]2C[C@@H]2c2cccc(Cl)c2)nc2cc(NCc3cn4cc(C5CC5)cc(N5CC(=O)N(C)C5=O)c4n3)ncc12` [Example 18, 1-(2-(((2-((1S,2S)-2-(3-chlorophenyl)cyclopropyl)-4-methoxy-1,6-naphthyridin-7-yl)amino)methyl)-6-cyclopropylimidazo[1,2-a]pyridin-8-yl)-3-methylimidazolidine-2,4-dione] and `COc1cc([C@H]2C[C@@H]2c2cccc(Cl)c2)nc2cc(NCc3cn4cc(C5CC5)cc(N5CCCC5=O)c4n3)ccc12` (racemic) [Example 4, rac-1-(2-(((2-((7S*,2S*)-2-(3-chlorophenyl)cyclopropyl)-4-methoxyquinolin-7-yl)amino)methyl)-6-cyclopropylimidazo[1,2-a]pyridin-8-yl)pyrrolidin-2-one] fall in the same range of EC50: 0.01 to 0.1 µM for the first, 0.01 to 0.1 µM for the second.

First: O[C@H]1C[C@H](c2cn3cc(C4CC4)ccc3n2)N(c2cc3[nH]c([C@H]4C[C@@H]4c4cccc(Cl)c4)c(F)c3cn2)C1 (relative stereo) [Example 56, rac-(3S,5R)-1-(2-((1S*,2S*)-2-(3-chlorophenyl)cyclopropyl)-3-fluoro-1H-pyrrolo[3,2-c]pyridin-6-yl)-5-(6-cyclopropylimidazo[1,2-a]pyridin-2-yl)pyrrolidin-3-ol]
Second: O=c1cc(C2C[C@@H]2c2cccc(Cl)c2)[nH]c2cc(NCc3cn4cc(C5CC5)ccc4n3)ccc12 (mixture of isomers) [Example 49, rac-2-((1S*,2S*)-2-(3-chlorophenyl)cyclopropyl)-7-(((6-cyclopropylimidazo[1,2-a]pyridin-2-yl)methyl)amino)quinolin-4 (1H)-one]
The EC50 of the first is higher: greater than 6.5 µM for the first, 0.001 to 0.01 µM for the second. The second is the more potent here.

`Clc1cccc([C@H]2C[C@@H]2c2nc3cccc(NCc4cn5cc(C6CC6)ccc5n4)c3[nH]2)c1` [Example 46, 2-((1S, 2S)-2-(3-chlorophenyl)cyclopropyl)-N-((6-cyclopropylimidazo[1,2-a]pyridin-2-yl)methyl)-1H-benzo[d]imidazol-7-amine] and `Clc1cccc([C@H]2C[C@@H]2c2nc3ccc(NCc4cn5cc(C6CC6)ccc5n4)cc3[nH]2)c1` [Example 45, 2-((1S,2S)-2-(3-chlorophenyl)cyclopropyl)-N-((6-cyclopropylimidazo[1,2-a]pyridin-2-yl)methyl)-1H-benzo[d]imidazol-6-amine] cannot be ordered by EC50: greater than 6.5 µM for the first, greater than 6.5 µM for the second.

First: Cc1ccnc([C@H]2C[C@@H]2c2ccc3ncn(Cc4cn5cc(C6CC6)cc(N6CC(=O)N(C)C6=O)c5n4)c3n2)n1 (racemic) [Example 71, rac-1-(6-cyclopropyl-2-((5-((1S*,2S*)-2-(4-methylpyrimidin-2-yl)cyclopropyl)-3H-imidazo[4,5-b]pyridin-3-yl)methyl)imidazo[1,2-a]pyridin-8-yl)-3-methylimidazolidine-2,4-dione]
Second: Cc1ccnc([C@H]2C[C@@H]2c2ccc3c(ncn3Cc3cn4cc(C5CC5)cc(N5CC(=O)N(C)C5=O)c4n3)n2)n1 (racemic) [Example 72, rac-1-(6-cyclopropyl-2-((5-((1S*,2S*)-2-(4-methylpyrimidin-2-yl)cyclopropyl)-1H-imidazo[4,5-b]pyridin-1-yl)methyl)imidazo[1,2-a]pyridin-8-yl)-3-methylimidazolidine-2,4-dione]
The EC50 of the first is higher: greater than 6.5 µM for the first, 0.1 to 6.5 µM for the second. The second is the more potent here.

Compared with `COc1cc([C@H]2C[C@@H]2c2cccc(Cl)c2)nc2cc(N(Cc3cn4cc(C5CC5)ccc4n3)C(=O)OC(C)(C)C)ccc12` (racemic) [Example 47, rac-tert-butyl (2-((1S*,2S*)-2-(3-chlorophenyl)cyclopropyl)-4-methoxyquinolin-7-yl)((6-cyclopropylimidazo[1,2-a]pyridin-2-yl)methyl)carbamate], `COc1cc([C@H]2C[C@@H]2c2cccc(Cl)c2)nc2cc(NCc3cn4cc(C5CC5)ccc4n3)ccc12` (racemic) [Example 48, rac-2-((1S*,2S*)-2-(3-chlorophenyl)cyclopropyl)-N-((6-cyclopropylimidazo[1,2-a]pyridin-2-yl)methyl)-4-methoxyquinolin-7-amine] is lower in EC50: greater than 6.5 µM for the first, 0.01 to 0.1 µM for the second.

`Cc1ccnc([C@H]2C[C@@H]2c2ccc3ncc(N(C)Cc4cn5cc(C6CC6)cc(N6CC(=O)N(C)C6=O)c5n4)cc3c2)n1` (racemic) [Example 17, rac-1-(6-Cyclopropyl-2-((methyl(6-((1S*,2S*)-2-(4-methylpyrimidin-2-yl)cyclopropyl)quinolin-3-yl)amino)methyl)imidazo[1,2-a]pyridin-8-yl)-3-methylimidazolidine-2,4-dione] and `Cc1ccnc([C@H]2C[C@@H]2c2ccc3ncc(NCc4cn5cc(C6CC6)cc(N6CC(=O)N(C)C6=O)c5n4)cc3c2)n1` (racemic) [Example 16, rac-1-(6-Cyclopropyl-2-(((6-((1S*,2S*)-2-(4-methylpyrimidin-2-yl)cyclopropyl)quinolin-3-yl)amino)methyl)imidazo[1,2-a]pyridin-8-yl)-3-methylimidazolidine-2,4-dione] fall in the same range of EC50: 0.1 to 6.5 µM for the first, 0.1 to 6.5 µM for the second.

First: Clc1cccc([C@H]2C[C@@H]2c2nc3ncncc3n2Cc2cn3cc(C4CC4)ccc3n2)c1 [Example 44, 8-((1S,2S)-2-(3-chlorophenyl)cyclopropyl)-7-((6-cyclopropylimidazo[1,2-a]pyridin-2-yl)methyl)-7H-purine]
Second: CN1C(=O)CN(c2cc(C3CC3)cn3cc(CNc4ccc5ccc([C@H]6C[C@@H]6c6cc(Cl)ccc6C#N)nc5c4)nc23)C1=O (racemic) [Example 83, rac-4-chloro-2-((1S*,2S*)-2-(7-(((6-cyclopropyl-8-(3-methyl-2,4-dioxoimidazolidin-1-yl)imidazo[1,2-a]pyridin-2-yl)methyl)amino)quinolin-2-yl)cyclopropyl)benzonitrile]
The EC50 of the first is higher: greater than 6.5 µM for the first, 0.001 to 0.01 µM for the second.

First: COc1cc(OCc2cn3cc(C4CC4)cc(N4CC(=O)N(C)C4=O)c3n2)cc2nc([C@H]3C[C@@H]3c3nccc(C)n3)ccc12 (racemic) [Example 102, rac-1-(6-cyclopropyl-2-(((5-methoxy-2-((1S*,2S*)-2-(4-methylpyrimidin-2-yl)cyclopropyl)quinolin-7-yl)oxy)methyl)imidazo[1,2-a]pyridin-8-yl)-3-methylimidazolidine-2,4-dione]
Second: Cc1ccnc([C@H]2C[C@@H]2c2ncc3cnc(NCc4cn5cc(C6CC6)cc(N6CC(=O)N(C)C6=O)c5n4)cc3n2)n1 (racemic) [Example 63, rac-1-(6-cyclopropyl-2-(((2-((1S*,2S*)-2-(4-methylpyrimidin-2-yl)cyclopropyl)pyrido[4,3-d]pyrimidin-7-yl)amino)methyl)imidazo[1,2-a]pyridin-8-yl)-3-methylimidazolidine-2,4-dione]
The EC50 of the first is lower: 0.01 to 0.1 µM for the first, 0.1 to 6.5 µM for the second. The first is the more potent here.
